For test [1], the system named is E2 stimulation on ERE transcriptional activity in MCF-7 cells. Put plainly: ERE luciferase reporter gene assay in the presence of 0.1 nM E2, antiestrogenic activity. The format is cell-based. The settings on record: for inhibition at 25 µM: Homo sapiens, MCF7, 25 μM (highest concentration) plus 0.1 nM E2, read-out: reduction of estradiol-dependent luciferase activity. The procedure:
MCF-7 cells were transiently transfected with pGL2-ERE2x-TK-luciferase plasmid. […] The luciferase activities of the treated cells were then measured by the ERE reporter gene assay.

For a further test, the system named is MCF-7 cell tumorigenesis. Put plainly: estrogen stimulated MCF-7 cell tumorigenesis xenograft model. The format is in vivo, Nu/Nu mice. To be noted: day 37 post cell injection; mean±SEM; control 351.17±43.88. How it is done: 4-6 week old ovariectomized female Nu/Nu mice were injected bilaterally in the mammary fat pad (MFP) with 5×10^6 MCF-7 cells in matrigel (reduced factor). […] Tumors were allowed to form and at day 15 post cell injection mice were randomized into groups (n=5). Animals were treated daily with i.p. injections of either vehicle (1:5 DMSO/PBS) or analog 2 (50 mg/kg/animal). Tamoxifen animals were implanted with a slow release tamoxifen pellet in the lateral area of the neck (opposite side from E2 pellet). ICI animals were given a onetime i.p. injection of ICI 182,780 (5 mg in castor oil). Tumor size was measured 3 times weekly using digital calipers. Data represented as mean tumor volume±SEM.
Due to the anti-estrogenic effects of analog 2 on MCF-7 cells observed in the in vitro biological assays, this analog was selected for further testing of estrogen stimulated MCF-7 cell tumorigenesis using a xenograft model. Ovariectomized female immunocompromised mice were injected with MCF-7 cells and supplemented with exogenous estrogen pellets. Once tumors were palpable animals were treated with analog 2, tamoxifen, or ICI and tumor volume compared to vehicle control animals.
Xenograft experiments were conducted using previously published protocols. Briefly, 4-6 week old female ovariectomized NU/Nu mice were obtained from Charles River Laboratories (Wilmington, Mass.). The animals were allowed a period of adaptation in a sterile and pathogen-free environment with phytoestrogen-free food and water ad libitum. MCF-7 cells were harvested in the exponential growth phase using a PBS/EDTA solution and washed. Mice were injected bilaterally in the mammary fat pad (M.F.P) with 5×10^6 viable cells suspended in 50 μL sterile PBS mixed with 100 μL Matrigel (reduced factor; BD Biosciences, Bedford, Mass.). […] All procedures in animals were carried out under anesthesia using a mix of isofluorane and oxygen delivered by mask. […] Tumor size was measured 3 times weekly using digital calipers. The volume of the tumor was calculated using the following formula: 4/3 πLS^2 (L=larger radius; S=shorter radius). […]

Test [2] concerns ERE transcriptional activity in MCF-7 cells. Put plainly: ERE luciferase reporter gene assay, estrogenic activity. The format is cell-based. The settings on record: for estrogenic (ERE) activity, in words: MCF-7, compound alone; for ERE transcriptional activity induced: 25 μM. How it is done: MCF-7 cells were transiently transfected with pGL2-ERE2x-TK-luciferase plasmid. […] While this order varied slightly as analog concentrations were increased further to 25 μM, several trends have emerged in the dose-dependent data. […] Second, shorter alkyl groups appear to have less effect on the reduction of ER agonist activity than their longer, bulkier counterparts.

Test [3] relates to progesterone receptor (PgR) gene expression in MCF-7 cells. Nature of the test: PgR mRNA expression by quantitative real time RT-PCR. The format is cell-based. The settings on record: for level of PgR expression: ligand in the presence of 0.1 nM E2, MCF-7 (E2 alone 5-fold); for increase in PgR expression compared with control: ligands only, vs DMSO. The source says:
Total RNA was isolated from MCF-7 cells, reverse-transcribed into cDNA and subjected to real-time RT-PCR analysis for quantification. […] Results are expressed as the mean unit±SEM.

A further test relates to MCF-7 cells. Put plainly: clonogenic (colony) assay. Format: cell-based. The procedure: MCF-7 cells were placed in phenol red-free DMEM supplemented with 5% dextran-coated charcoal-treated FBS for 48 h before plating. MCF-7 cells (1000) were plated in six well plates. […] Colonies of >50 cells were counted as positive. Results are normalized to percentage of clonogenic survival from DMSO control cells.

Test [4] relates to AKT and mTOR phosphorylation in MDA-MB-231 cells. Put plainly: immunoblot of phospho-AKT and mTOR. The format is cell-based. How it is done: The effects of analog 2 on TNBC may be mediated via alterations in the PI3K/AKT/mTOR pathway. After 72 hours in 5% charcoal-stripped fetal bovine serum (CSFBS) DMEM phenol-free medium, MDA-MB-231 cells were re-fed with either medium-containing vehicle, analog 2 (10 μM, 4 hours), analog 2 (4 hours) followed by EGF stimulation (50 ng/mL, 30 minutes), or EGF alone (30 minutes). Membranes were probed with primary antibodies according to manufacturers' protocol. Antibodies: phosho-AKT (S473 and T308), mTOR ([…]), and corresponding total protein antibodies (Cell Signaling), using rho as a loading control (Santa Cruz).

Another test deals with MDA-MB-231 cells. Nature of the test: MDA-MB-231 xenograft tumor volume. Format: in vivo, CB-17/SCID mice. The procedure: 4-6 week old female CB-17/SCID mice were allowed a period of adaptation in a sterile and pathogen-free environment with phytoestrogen-free food and water ad libitum. MDA-MB-231 cells were harvested in the exponential growth phase using a PBS/EDTA solution and washed. Mice were injected bilaterally in the mammary fat pad (MFP) with 5×10^6 viable cells suspended in 50 μL sterile PBS mixed with 100 μL Matrigel (reduced factor; BD Biosciences, Bedford, Mass.). Tumors were allowed to form, and at day 4 post cell injection mice were randomized into groups of 5 mice each. Mice were treated daily with intra-peritoneal (IP) injections of either vehicle (DMSO) or analog 2 (50 mg/kg/animal/day) for 14 days. External tumor size was measured using digital calipers and tumor volume calculated using the formula: 4/3 π LS^2 (L=larger radius; S=shorter radius). At necropsy, animals were euthanized by cervical dislocation after exposure to CO2. […] This trend continued until the mice were euthanized at day 18, where tumor volume for control mice averaged 188±18.78 mm^3 and the tumor volume for mice treated with analog 2 averaged 91.11±10.15 mm^3.

The subject of a further test is BT-549. Nature of the test: transwell migration assay. The format is cell-based. The settings on record: 10 μM, 24 hours. How it is done:
(§1) TNBC cells were seeded (2.5×10^4 in 500 μl 10% DMEM) in the upper chamber of a 24 well transwell system. DMEM supplemented with FBS (10%) was used as a chemoattractant in the lower wells. After 24 hours of treatment (DMSO or analog 2 10 μM), membranes were scrubbed, stained with 0.1% crystal violet, and the number of migrated cells analyzed by microscopy. Data represented as normalized means of triplicate experiments±SEM. […] The TNBC phenotype is characterized by highly aggressive and migratory cells. The ability of analog 2 to inhibit this migration indicates its potential as a novel anti-metastatic therapeutic in the triple-negative breast carcinoma setting.

In the next test the test system is MDA-MB-231. Put plainly: transwell migration assay. The format is cell-based. To be noted: 10 μM, 24 hours. The procedure: as §1
Another test relates to MDA-MB-157. Nature of the test: transwell migration assay. The format is cell-based. The settings on record: 10 μM, 24 hours. The procedure:
as §1

“Also recorded” adds a separate entry of the source. Bounds are passed on as bounds.

On to `CCCCCCOc1ccc2c(=O)c(-c3ccc(O)cc3)coc2c1` [3h, 7-Hexyloxy-3-(4-hydroxyphenyl)chromen-4-one], for which the inhibition at 25 µM in test [1] was < 47%.

As to `CCCCOc1ccc2c(=O)c(-c3ccc(O)cc3)coc2c1` [3e, 7-Butoxy-3-(4-hydroxyphenyl)chromen-4-one], the inhibition at 25 µM in test [1] is < 47%.

In turn, `CC/C(=C(\c1ccccc1)c1ccc(OCCN(C)C)cc1)c1ccccc1` [tamoxifen] came in with a tumor volume in the test with MCF-7 cell tumorigenesis of 178.12±41.18 mm3.

Regarding `CC(C)COc1ccc2c(=O)c(-c3ccc(O)cc3)coc2c1` [3f, 3-(4-Hydroxyphenyl)-7-isobutoxychromen-4-one], the inhibition at 25 µM in [1] is > 60%. Moreover, in test [2], the “estrogenic (ERE) activity, in words” value is “negligible ERE activity”.

Take `C[C@]12CC[C@@H]3c4ccc(O)cc4C[C@@H](CCCCCCCCC[S+]([O-])CCCC(F)(F)C(F)(F)F)[C@H]3[C@@H]1CC[C@@H]2O` (stereo partly drawn) [ICI 182,780]: the tumor volume in the test on MCF-7 cell tumorigenesis is reported as 130.95±23.49 mm3.

Consider `O=c1c(-c2ccc(O)cc2)coc2cc(O)ccc12` [daidzein, reference compound], for which the “level of PgR expression” value in test [3] came out at 5 fold. Besides, the “increase in PgR expression compared with control” value (from here on “increase in PgR expression”) in [3] (MCF-7) was determined as 3 fold. In test [2], the “estrogenic (ERE) activity, in words” value is given as “more potent estrogenic activity than any of its derivatives”. The “increase in clonogenicity of MCF-7 cells” value in the test on MCF-7 cells (1 μM, without E2, vs DMSO) is on record as “over 3 fold”; in the test on MCF-7 cells (10 μM, without E2, vs DMSO) it was 2.5 times.

For the molecule `C[C@]12CC[C@@H]3c4ccc(O)cc4CC[C@H]3[C@@H]1CC[C@@H]2O` [E2, 17β-estradiol, reference compound], the “increase in PgR expression” value in test [3] (MCF-7) is reported as 5 fold. Further, the “increase in clonogenicity of MCF-7 cells” value with MCF-7 cells (0.1 nM, vs DMSO treated controls) is on record as “approximately 3 fold”.

Regarding `CCCOc1ccc2c(=O)c(-c3ccc(O)cc3)coc2c1` [3c, 3-(4-Hydroxyphenyl)-7-propoxychromen-4-one], the inhibition at 25 µM in [1] is < 47%. Moreover, the “ERE transcriptional activity induced” value in test [2] (MCF-7, normalized to E2 (100)) worked out at 38.4%.

As for `O=c1c(-c2ccc(O)cc2)coc2cc(OC3CCCC3)ccc12` [3g, 7-Cyclopentyloxy-3-(4-hydroxyphenyl)chromen-4-one], the inhibition at 25 µM in [1] is > 60%. Besides, the “estrogenic (ERE) activity, in words” value in test [2] is recorded as “negligible ERE activity”.

Turning to `CC1(C)C=Cc2c(ccc3c(=O)c(-c4ccc(O)cc4)coc23)O1` [compound 2, 3-(4-Hydroxyphenyl)-8,8-dimethyl-8H-pyrano[2,3-f]chromen-4-one], in [4] (10 μM 4 hours then EGF 50 ng/mL 30 minutes), the “effect on EGF-stimulated AKT and mTOR phosphorylation, in words” value is “significantly abrogate the effects of EGF stimulation on AKT and mTOR phosphorylation”. Further, the “phospho-levels of AKT at S473 and T308, in words” value in test [4] (10 μM, 4 hours) was “significant decreases”. The “level of PgR expression” value in [3] came to 3 fold. For the same molecule, in test [3] (ligand only, MCF-7), the “PgR expression compared with DMSO, in words” value was “decrease in PgR expression”. The tumor volume in the test on MDA-MB-231 cells (day 18, 50 mg/kg/animal/day IP for 14 days, control 188±18.78) stood at 91.11±10.15 mm^3; in the test with MCF-7 cell tumorigenesis it was 241.53±68.29 mm3. In the test on MDA-MB-231 cells (seven days after cell injection, three days' treatment), the “tumor volume vs control, in words” value is on record as “statistically less than those of control mice”. Besides, in [1] (25 μM plus 0.1 nM E2), the “blocking of ERE activity, in words” value is given as “completely blocking ERE activity”. Moreover, the “estrogenic (ERE) activity, in words” value in test [2] is recorded as “little or no estrogen activity; also recorded: negligible ERE activity”. For the same molecule, the “number of migrated cells compared to control (normalized to 100%)” value was determined as 0.08% in the test with BT-549, 0% with MDA-MB-231 and 25.57% in the test on MDA-MB-157. The “clonogenicity in the presence of E2, in words” value with MCF-7 cells (10 μM plus 0.1 nM estradiol) was “inhibit the clonogenicity of MCF-7 cells completely”. Moreover, the “cell clonogenicity, in words” value with MCF-7 cells (10 μM, without E2) is given as “completely blocked cell clonogenicity”. The inhibition at 1 µM in the test with MCF-7 cells (Homo sapiens, MCF7, read-out: inhibition of clonogenicity) was found to be 15%.

For the molecule `CCOc1ccc2c(=O)c(-c3ccc(O)cc3)coc2c1` [3b, 3-(4-Hydroxyphenyl)-7-ethoxychromen-4-one], the inhibition at 25 µM in test [1] is < 47%. The “ERE transcriptional activity induced” value in [2] (MCF-7, normalized to E2 (100)) was found to be 80.4%.

In the case of `COc1ccc2c(=O)c(-c3ccc(O)cc3)coc2c1` [3a, 3-(4-Hydroxyphenyl)-7-methoxychromen-4-one], the “level of PgR expression” value in test [3] stood at 4 fold. Besides, the “increase in PgR expression” value in test [3] (MCF-7) is on record as 3 fold. Moreover, in test [1], the inhibition at 25 µM was < 47%. Also, in test [2] (10 μM, MCF-7, normalized to E2 (100)), the ERE activity stood at 38%. In addition, in test [2] (MCF-7, normalized to E2 (100)), the “ERE transcriptional activity induced” value worked out at 70.9%. Further, the “increase of cell proliferation (clonogenicity)” value in the test on MCF-7 cells (1 μM, without E2, vs DMSO) stood at 43%. Further, in the test on MCF-7 cells (10 μM, without E2, vs DMSO), the “increase in clonogenicity of MCF-7 cells” value was 24%.

Consider `CC(C)Oc1ccc2c(=O)c(-c3ccc(O)cc3)coc2c1` [3d, 3-(4-Hydroxyphenyl)-7-isopropoxychromen-4-one], for which, in test [1], the inhibition at 25 µM is > 60%.

The values are drawn from patent US9669004B2 (THE ADMINISTRATORS OF THE TULANE EDUCATIONAL FUND, priority 2010, dated 2017).
